In patent US20140023611A1 (priority 2010, published 2014):

Assays:
[1] = Stability of compounds in simulated intestinal fluid (SIF); type: in vitro ADME; conditions: simulated intestinal fluid (3 mg/mL pancreatin), incubation time 6 hr, relative to t=0
Protocol: (§1) Test compounds were incubated at […] in simulated gastric fluid (SGF; standard USP solution with 3 mg/mL pepsin) or simulated intestinal fluid (SIF; standard USP solution with 3 mg/mL pancreatin) for 3 hr or 6 hr. HPLC-UV or HPLC-MS were used to determine test compound levels using peak area %. Results (Table 14) were reported as the percentage of test compound remaining after incubation in a given condition relative to test compound present at t=0 in the same condition.

[2] = Determination of compound Cmax and AUC after oral gavage (plasma LC-MS/MS); type: in vivo, Sprague-Dawley rats; conditions: Sprague-Dawley, rat, plasma, po, Structure (I) examples, Table 15, actual oral dose 3-15 mg/kg, plasma 0.5-4 h
How it was run: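 Plasma exposure measured by LC-MS/MS after acetonitrile precipitation with internal standard, quantified against a standard curve made in plasma. Compound given orally by gavage to Sprague-Dawley rats at nominal 2.5 or 10 mg/kg, with K2EDTA plasma sampled at 0.5, 1, 2 and 4 h.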

rat NaP2b (SLC34A2) = biological target: T1, rat NaP2b (SLC34A2) (Rattus norvegicus, UniProt Q9JJ09); test: Inhibition of NaP2b-mediated Pi (33P) uptake in transfected HEK293 cells, rat NaP2b; type: cell-based; conditions: 33P Pi uptake, 0.1 mM phosphate, value given as pIC50 range
T1 construct: host or cells: HEK293
T1 sequence (Q9JJ09 1-695): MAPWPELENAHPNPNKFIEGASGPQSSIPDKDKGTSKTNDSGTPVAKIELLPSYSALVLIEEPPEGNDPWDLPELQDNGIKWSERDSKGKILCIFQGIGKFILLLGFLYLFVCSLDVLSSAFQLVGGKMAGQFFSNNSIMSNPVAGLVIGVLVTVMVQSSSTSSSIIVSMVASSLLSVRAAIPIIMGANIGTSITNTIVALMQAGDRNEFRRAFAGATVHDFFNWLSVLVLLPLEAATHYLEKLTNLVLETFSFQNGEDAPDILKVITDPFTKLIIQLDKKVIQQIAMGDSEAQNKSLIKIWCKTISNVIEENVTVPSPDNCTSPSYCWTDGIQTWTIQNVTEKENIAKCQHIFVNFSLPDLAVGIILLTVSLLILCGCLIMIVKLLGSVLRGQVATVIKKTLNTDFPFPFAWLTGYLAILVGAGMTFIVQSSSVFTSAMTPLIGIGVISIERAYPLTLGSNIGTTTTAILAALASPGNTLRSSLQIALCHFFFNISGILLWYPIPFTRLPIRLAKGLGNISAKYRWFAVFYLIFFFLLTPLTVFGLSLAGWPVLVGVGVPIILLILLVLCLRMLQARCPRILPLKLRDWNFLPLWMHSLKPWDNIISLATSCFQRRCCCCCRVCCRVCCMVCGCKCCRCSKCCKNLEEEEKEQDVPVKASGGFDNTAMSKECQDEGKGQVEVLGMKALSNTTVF
How it was run: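 The cells transiently expressed NaP2b after Lipofectamine transfection. Each compound was run in duplicate over twelve concentrations, 0.1 nM–30 uM.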

[3] = Stability of compounds in simulated gastric fluid (SGF); type: in vitro ADME; conditions: simulated gastric fluid (3 mg/mL pepsin), incubation time 6 hr, relative to t=0
Protocol: as §1

Row | Structure (SMILES) | % remaining, SIF [1] | AUC [2] [ng·h/mL] | Cmax [2] [ng/mL] | IC50 (rat NaP2b (SLC34A2)) [µM] | % remaining, SGF [3] [%]
1 | CN(CCN1CCC[C@H]1C(=O)N(C)CCOCCOCCOCCC(=O)O)C(=O)c1cccc(C(=O)Nc2ccc(N3CCCCC3)cc2-c2cc(C(=O)N[C@H]3CCCc4ccccc43)ccn2)c1 [Example 191, 2-Methyl-1-((S)-1-(2-(N-methyl-3-((4-(piperidin-1-yl)-2-(4-(((S)-1,2,3,4-tetrahydronaphthalen-1-yl)carbamoyl)pyridin-2-yl)phenyl)carbamoyl)benzamido)ethyl)pyrrolidin-2-yl)-1-oxo-5,8,11-trioxa-2-azatetradecan-14-oic acid] | >80% | < 10 | < 10 | 10 to 31.6 | >80
2 | COCCOCCOCCOCCOCCOCCOCCN(C)C(=O)[C@H]1CCCN(C(=O)c2cccc(C(=O)Nc3ccc(N4CCCCC4)cc3-c3cc(C(=O)N[C@H]4CCCc5ccccc54)ccn3)c2)C1 [Example 255, 2-(2-(3-((S)-3-(2,5,8,11,14,17,20-heptaoxadocosan-22-yl(methyl)carbamoyl)piperidine-1-carbonyl)benzamido)-5-(piperidin-1-yl)phenyl)-N—((S)-1,2,3,4-tetrahydronaphthalen-1-yl)isonicotinamide] | >80% | < 10 | < 10 | 1 to 7.94 | >80
3 | CN(CCN1CCCC[C@H]1C(=O)N(C)CCOCCOCCOCCC(=O)OC(C)(C)C)C(=O)c1cccc(C(=O)Nc2ccc(N3CCCCC3)cc2-c2cc(C(=O)N[C@H]3CCCc4ccccc43)ccn2)c1 [Example 240, tert-butyl 2-methyl-1-((S)-1-(2-(N-methyl-3-(4-(piperidin-1-yl)-2-(4-((S)-1,2,3,4-tetrahydronaphthalen-1-ylcarbamoyl)pyridin-2-yl)phenylcarbamoyl)benzamido)ethyl)piperidin-2-yl)-1-oxo-5,8,11-trioxa-2-azatetradecan-14-oate] | >80% | < 10 | < 10 | 1 to 7.94 | >80
4 | COCCOCCOCCOCCOCCOCCOCCNC(=O)[C@H]1CCCN(C(=O)c2cccc(C(=O)Nc3ccc(N4CCCCC4)cc3-c3cc(C(=O)N[C@H]4CCCc5ccccc54)ccn3)c2)C1 [Example 256, 2-(2-(3-((S)-3-(2,5,8,11,14,17,20-heptaoxadocosan-22-ylcarbamoyl)piperidine-1-carbonyl)benzamido)-5-(piperidin-1-yl)phenyl)-N—((S)-1,2,3,4-tetrahydronaphthalen-1-yl)isonicotinamide] | >80% | < 10 | < 10 | 1 to 7.94 | >80
5 | CN(CCOCCOCCOCCC(=O)N1CCN(CCOCCO)CC1)C(=O)c1cccc(C(=O)Nc2ccc(N3CCCCC3)cc2-c2cc(C(=O)N[C@H]3CCCc4ccccc43)ccn2)c1 [Example 250, 1-N-(2-{2-[2-(3-{4-[2-(2-hydroxyethoxy)ethyl]piperazin-1-yl}-3-oxopropoxy)ethoxy]ethoxy}ethyl)-1-N-methyl-3-N-[4-(piperidin-1-yl)-2-(4-{[(1S)-1,2,3,4-tetrahydronaphthalen-1-yl]carbamoyl}pyridin-2-yl)phenyl]benzene-1,3-dicarboxamide] | >80% | < 10 | < 10 | 1 to 7.94 | >80
6 | COCCOCCOCCOCCOCCOCCOCCOCCNC(=O)CCOCCOCCOCCOCCSCc1cccc(C(=O)Nc2ccc(N3CCCCC3)cc2-c2cc(C(=O)NCc3cccc(C(F)(F)F)c3)ccn2)c1 [Example 148, 2-(2-(3-(27-oxo-2,5,8,11,14,17,20,23,30,33,36,39-dodecaoxa-42-thia-26-azatritetracontan-43-yl)benzamido)-5-(piperidin-1-yl)phenyl)-N-(3-(trifluoromethyl)benzyl)isonicotinamide] | >80% | < 10 | < 10 | 1 to 7.94 | >80
7 | COCCN(C)C(=O)N1CCN(CCN(C)Cc2cccc(C(=O)Nc3ccc(N4CCCCC4)cc3-c3cc(C(=O)NCc4cccc(C(F)(F)F)c4)ccn3)n2)CC1 [Example 210, N-(2-methoxyethyl)-N-methyl-4-(2-(methyl((6-(4-(piperidin-1-yl)-2-(4-(3-(trifluoromethyl)benzylcarbamoyl)pyridin-2-yl)phenylcarbamoyl)pyridin-2-yl)methyl)amino)ethyl)piperazine-1-carboxamide] | >80% | < 30 | < 10 | 10 to 31.6 | >80

The remaining lines, values ahead:

Row | % remaining, SIF [1] | AUC [2] [ng·h/mL] | Cmax [2] [ng/mL] | IC50 (rat NaP2b (SLC34A2)) [µM] | % remaining, SGF [3] [%] | Structure (SMILES)
8 | >80% | < 10 | < 10 | 10 to 31.6 | >80 | CN(CCOCCOCCOCCC(=O)O)C(=O)c1cccc(C(=O)Nc2ccc(Cl)cc2-c2cc(C(=O)NCc3cccc(C(F)(F)F)c3)ccn2)c1 [Example 238, 3-{2-[2-(2-{1-[3-({4-chloro-2-[4-({[3-(trifluoromethyl)phenyl]methyl}carbamoyl)pyridin-2-yl]phenyl}carbamoyl)phenyl]-N-methylformamido}ethoxy)ethoxy]ethoxy}propanoic acid]
9 | 60-80% | < 10 | < 10 | 1 to 7.94 | >80 | O=C(CCOCCOCCOCCOCCSCc1cccc(C(=O)Nc2ccc(N3CCCCC3)cc2-c2cc(C(=O)NCc3cccc(C(F)(F)F)c3)ccn2)c1)NCCN1CCOCC1 [Example 146, 2-(2-(3-(20-morpholino-17-oxo-5,8,11,14-tetraoxa-2-thia-18-azaicosyl)benzamido)-5-(piperidin-1-yl)phenyl)-N-(3-(trifluoromethyl)benzyl)isonicotinamide]
10 | >80% | < 10 | < 10 | 10 to 31.6 | >80 | CN(CCN1CCOCC1)C(=O)CCOCCOCCOCCOCCSCc1cccc(C(=O)Nc2ccc(N3CCCCC3)cc2-c2cc(C(=O)NCc3cccc(C(F)(F)F)c3)ccn2)c1 [Example 150, 2-(2-(3-(18-methyl-20-morpholino-17-oxo-5,8,11,14-tetraoxa-2-thia-18-azaicosyl)benzamido)-5-(piperidin-1-yl)phenyl)-N-(3-(trifluoromethyl)benzyl)isonicotinamide]
